Values after ≈ are worked out from the molar mass of the structure shown.
Legend:
in vivo = conditions: both sexes, rat, oral, suspended in 0.5% CMC-Na aqueous solution, SD male and female rats, observed for seven days
Campylobacter jejuni = experiment: Measurement of anti-Campylobacter jejuni activity (MIC); type: cell-based; conditions: method similar to Test Example 1
Protocol: Brain heart infusion culture medium containing 10% fetal bovine serum (Difco) (5 ml) was taken in a test tube, and then the medium was inoculated with Helicobacter pylori strain 31A isolated from human (obtained from the Metropolitan Health Institute, Microorganism Department, First Laboratory of Bacteria). Cultivation was carried out under slightly aerobic condition (5% oxygen, 10% carbon dioxide, 85% nitrogen) at 37° C. for 48 hours with shaking.
The culture was then inoculated to brain heart infusion medium containing 10% fetal bovine serum at a ratio of 5%, and added with a test compound dissolved in 10% dimethyl sulfoxide. Cultivation was carried out under slightly aerobic condition at 37° C. for 48 hours with shaking, and then growth of Helicobacter pylori was examined. […] From the results shown in Tables 3 and 4, it can be understood that the compounds of the present invention have potent inhibitory activity against Helicobacter pylori.
According to a aimiar method to that of Test Example 1, inhibitory activity of the compound of the present invention against Campylobacter jejune was determined. As a result, MIC of the compound of Example 31 was 0.008 μg/ml. From the result, it can be understood that the compound of the present invention has potent inhibitory activity against Campylobacter jejumni.

CNC(=O)c1cccc(NC(=O)Cc2cccc3ccccc23)c1 [Example 30, N-(3-Methylcarbamoylphenyl)-1-naphthylacetamide]
LD50 (in vivo): ≥ 2000 mg/kg

CNC(=O)c1cccc(NC(=O)Cc2ccc3ccccc3c2)c1 [Example 31, N-(3-Methylcarbamoylphenyl)-2-naphthylacetnide]
MIC (Campylobacter jejuni): 8 ng/mL (≈ 0.0251 µM)
